Read-outs that look alike come from different tables or passages of the source.
Tests used:
Type in all cases: cell-based
Botryosphaeri = assay: In vitro mycelial/spore growth on potato-sucrose-agar, percent disease control (BD); conditions: read-out: % controlled, BD
Experimental: (§1) The compounds of this invention were dissolved respectively in acetone in an amount equal to 10% of the final volume and then in purified water at the concentration of 100 ppm and 50 ppm.
(§2) Each of the solution was mixed with potato-sucrose-agar medium in 6" petri dish and one of the fungi was spotted at the center of the dish. The dish was incubated in growth room for several days. The percent disease control was derived from the radii of spore growth. The screening tests in vitro condition are well-known to those skilled in the art.
(§3) The following fungi were used for the screening.
4) Bo. do (Ma); Botryosphaeri

GC = assay: In vitro mycelial/spore growth on potato-sucrose-agar, percent disease control (GC); conditions: read-out: % controlled, GC; for inhibition of growth at 50 ppm: GC
Experimental: as §1, §2, §3

Botritis cinerea = assay: In vitro mycelial/spore growth on potato-sucrose-agar, percent disease control (BC); conditions: read-out: % controlled, BC
Experimental: as §1, §2, §3
10) Bo. ci.; Botritis cinerea

Phytophthora capsisi = assay: In vitro mycelial/spore growth on potato-sucrose-agar, percent disease control (PC); conditions: read-out: % controlled, PC
Experimental: as §1, §2, §3
2) Phy. ca.; Phytophthora capsisi

Pyricalaria oryzae = assay: In vitro mycelial/spore growth on potato-sucrose-agar, percent disease control (PO); conditions: read-out: % controlled, PO
Experimental: as §1, §2, §3
6) Py. or.; Pyricalaria oryzae

Rhizoctonia solani = assay: In vitro mycelial/spore growth on potato-sucrose-agar, percent disease control (RS, first column); conditions: read-out: % controlled, RS
Experimental: as §1, §2, §3
7) Rhi. so.; Rhizoctonia solani

Rhizopus sp. = assay: In vitro mycelial/spore growth on potato-sucrose-agar, percent disease control (RS, second column); conditions: read-out: % controlled, RS
Experimental: as §1, §2, §3
9) Rhi. sp.; Rhizopus sp.

Fusarium moniliforme = assay: In vitro mycelial/spore growth on potato-sucrose-agar, percent disease control (FM); conditions: Fusarium verticillioides, read-out: % controlled, FM
Experimental: as §1, §2, §3
8) Fu. mo.; Fusarium moniliforme

SMILES: Clc1ccc([Si]2(Cn3cncn3)CCCCC2)cc1 [1-(4-chlorophenyl)-1-(1H-1,2,4-triazole-1-yl)methyl-1-silacyclohexane]
- inhibition of growth at 50 ppm (Botryosphaeri): 100%
- inhibition of growth at 200 ppm (Botryosphaeri): 100%
- inhibition of growth at 50 ppm (GC): 100%
- inhibition of growth at 200 ppm (GC): 100%
- inhibition of growth at 50 ppm (Botritis cinerea): 100%
- inhibition of growth at 200 ppm (Botritis cinerea): 100%
- inhibition of growth at 50 ppm (Phytophthora capsisi): 90%
- inhibition of growth at 200 ppm (Phytophthora capsisi): 100%
- inhibition of growth at 50 ppm (Pyricalaria oryzae): 100%
- inhibition of growth at 200 ppm (Pyricalaria oryzae): 100%
- inhibition of growth at 50 ppm (Rhizoctonia solani): 57%
- inhibition of growth at 200 ppm (Rhizoctonia solani): 69%
- inhibition of growth at 50 ppm (Rhizopus sp.; 50 ppm, Rhizopus sp.): 50%
- inhibition of growth at 200 ppm (Rhizopus sp.; Rhizopus): 92%
- inhibition of growth at 50 ppm (Fusarium moniliforme; 50 ppm, Fusarium moniliforme): 100%
- inhibition of growth at 200 ppm (Fusarium moniliforme; Fusarium moniliforme): 100%

SMILES: Clc1ccc([Si]2(Cn3cncn3)CCCC2)cc1 [1-(4-chlorophenyl)-1-(1H-1,2,4-triazole-1-yl)methyl-1-silacyclopentane]
- inhibition of growth at 50 ppm (Botryosphaeri): 70%
- inhibition of growth at 200 ppm (Botryosphaeri): 99%
- inhibition of growth at 50 ppm (GC): 100%
- inhibition of growth at 200 ppm (GC): 100%
- inhibition of growth at 50 ppm (Botritis cinerea): 100%
- inhibition of growth at 200 ppm (Botritis cinerea): 100%
- inhibition of growth at 50 ppm (Phytophthora capsisi): 15%
- inhibition of growth at 200 ppm (Phytophthora capsisi): 98%
- inhibition of growth at 50 ppm (Pyricalaria oryzae): 100%
- inhibition of growth at 200 ppm (Pyricalaria oryzae): 100%
- inhibition of growth at 50 ppm (Rhizoctonia solani): 95%
- inhibition of growth at 200 ppm (Rhizoctonia solani): 100%
- inhibition of growth at 50 ppm (Rhizopus sp.; 50 ppm, Rhizopus sp.): 67%
- inhibition of growth at 200 ppm (Rhizopus sp.; Rhizopus): 75%
- inhibition of growth at 50 ppm (Fusarium moniliforme; 50 ppm, Fusarium moniliforme): 100%
- inhibition of growth at 200 ppm (Fusarium moniliforme; Fusarium moniliforme): 100%

SMILES: CC(n1cncn1)[Si]1(c2ccc(Cl)cc2)CCCCC1 (stereo not drawn) [1-(4-chlorophenyl)-1-[α-(1H-1,2,4-triazole-1-yl)ethyl]-1-silacyclohexane]
- inhibition of growth at 50 ppm (Botryosphaeri): 100%
- inhibition of growth at 200 ppm (Botryosphaeri): 100%
- inhibition of growth at 50 ppm (GC): 100%
- inhibition of growth at 200 ppm (GC): 100%
- inhibition of growth at 50 ppm (Botritis cinerea): 100%
- inhibition of growth at 200 ppm (Botritis cinerea): 100%
- inhibition of growth at 50 ppm (Phytophthora capsisi): 75%
- inhibition of growth at 200 ppm (Phytophthora capsisi): 100%
- inhibition of growth at 50 ppm (Pyricalaria oryzae): 100%
- inhibition of growth at 200 ppm (Pyricalaria oryzae): 100%
- inhibition of growth at 50 ppm (Rhizoctonia solani): 100%
- inhibition of growth at 200 ppm (Rhizoctonia solani): 100%
- inhibition of growth at 50 ppm (Rhizopus sp.; 50 ppm, Rhizopus sp.): 77%
- inhibition of growth at 200 ppm (Rhizopus sp.; Rhizopus): 90%
- inhibition of growth at 50 ppm (Fusarium moniliforme; 50 ppm, Fusarium moniliforme): 100%
- inhibition of growth at 200 ppm (Fusarium moniliforme; Fusarium moniliforme): 100%

SMILES: CC(n1cncn1)[Si]1(c2ccc(Cl)cc2)CCCC1 (stereo not drawn) [1-(4-chlorophenyl)-1-[α-(1H-1,2,4-triazole-1-yl)ethyl]-1-silacyclopentane]
- inhibition of growth at 50 ppm (Botryosphaeri): 100%
- inhibition of growth at 200 ppm (Botryosphaeri): 100%
- inhibition of growth at 50 ppm (GC): 100%
- inhibition of growth at 200 ppm (GC): 100%
- inhibition of growth at 50 ppm (Botritis cinerea): 100%
- inhibition of growth at 200 ppm (Botritis cinerea): 100%
- inhibition of growth at 50 ppm (Phytophthora capsisi): 30%
- inhibition of growth at 200 ppm (Phytophthora capsisi): 100%
- inhibition of growth at 50 ppm (Pyricalaria oryzae): 100%
- inhibition of growth at 200 ppm (Pyricalaria oryzae): 100%
- inhibition of growth at 50 ppm (Rhizoctonia solani): 100%
- inhibition of growth at 200 ppm (Rhizoctonia solani): 100%
- inhibition of growth at 50 ppm (Rhizopus sp.; 50 ppm, Rhizopus sp.): 42%
- inhibition of growth at 200 ppm (Rhizopus sp.; Rhizopus): 60%
- inhibition of growth at 50 ppm (Fusarium moniliforme; 50 ppm, Fusarium moniliforme): 100%
- inhibition of growth at 200 ppm (Fusarium moniliforme; Fusarium moniliforme): 100%

SMILES: CCOc1ccc([Si]2(Cn3cncn3)CCCCC2)cc1 [1-(4-ethoxyphenyl)-1-(1H-1,2,4-triazole-1-yl)methyl-1-silacyclohexane]
- inhibition of growth at 50 ppm (Botryosphaeri): 79%
- inhibition of growth at 200 ppm (Botryosphaeri): 100%
- inhibition of growth at 50 ppm (GC): 100%
- inhibition of growth at 200 ppm (GC): 100%
- inhibition of growth at 50 ppm (Botritis cinerea): 74%
- inhibition of growth at 200 ppm (Botritis cinerea): 94%
- inhibition of growth at 50 ppm (Phytophthora capsisi): 65%
- inhibition of growth at 200 ppm (Phytophthora capsisi): 87%
- inhibition of growth at 50 ppm (Pyricalaria oryzae): 100%
- inhibition of growth at 200 ppm (Pyricalaria oryzae): 100%
- inhibition of growth at 50 ppm (Rhizoctonia solani): 94%
- inhibition of growth at 200 ppm (Rhizoctonia solani): 100%
- inhibition of growth at 50 ppm (Rhizopus sp.; 50 ppm, Rhizopus sp.): 54%
- inhibition of growth at 200 ppm (Rhizopus sp.; Rhizopus): 85%
- inhibition of growth at 50 ppm (Fusarium moniliforme; 50 ppm, Fusarium moniliforme): 73%
- inhibition of growth at 200 ppm (Fusarium moniliforme; Fusarium moniliforme): 99%

SMILES: CCOc1ccc([Si]2(Cn3cncn3)CCCC2)cc1 [1-(4-ethoxyphenyl)-1-(1H-1,2,4-triazole-1-yl)methyl-1-silacyclopentane]
- inhibition of growth at 50 ppm (Botryosphaeri): 82%
- inhibition of growth at 200 ppm (Botryosphaeri): 89%
- inhibition of growth at 50 ppm (GC): 100%
- inhibition of growth at 200 ppm (GC): 100%
- inhibition of growth at 50 ppm (Botritis cinerea): 70%
- inhibition of growth at 200 ppm (Botritis cinerea): 74%
- inhibition of growth at 50 ppm (Phytophthora capsisi): 40%
- inhibition of growth at 200 ppm (Phytophthora capsisi): 100%
- inhibition of growth at 50 ppm (Pyricalaria oryzae): 100%
- inhibition of growth at 200 ppm (Pyricalaria oryzae): 100%
- inhibition of growth at 50 ppm (Rhizoctonia solani): 72%
- inhibition of growth at 200 ppm (Rhizoctonia solani): 100%
- inhibition of growth at 50 ppm (Rhizopus sp.; 50 ppm, Rhizopus sp.): 66%
- inhibition of growth at 200 ppm (Rhizopus sp.; Rhizopus): 77%
- inhibition of growth at 50 ppm (Fusarium moniliforme; 50 ppm, Fusarium moniliforme): 68%
- inhibition of growth at 200 ppm (Fusarium moniliforme; Fusarium moniliforme): 79%

SMILES: CCOc1ccc([Si]2(C(C)n3cncn3)CCCCC2)cc1 (stereo not drawn) [1-(4-ethoxyphenyl)-1-[α-(1H-1,2,4-triazole-1-yl)ethyl]-1-silacyclohexane]
- inhibition of growth at 50 ppm (Botryosphaeri): 92%
- inhibition of growth at 200 ppm (Botryosphaeri): 100%
- inhibition of growth at 50 ppm (GC): 100%
- inhibition of growth at 200 ppm (GC): 100%
- inhibition of growth at 50 ppm (Botritis cinerea): 65%
- inhibition of growth at 200 ppm (Botritis cinerea): 98%
- inhibition of growth at 50 ppm (Phytophthora capsisi): 45%
- inhibition of growth at 200 ppm (Phytophthora capsisi): 75%
- inhibition of growth at 50 ppm (Pyricalaria oryzae): 100%
- inhibition of growth at 200 ppm (Pyricalaria oryzae): 100%
- inhibition of growth at 50 ppm (Rhizoctonia solani): 97%
- inhibition of growth at 200 ppm (Rhizoctonia solani): 100%
- inhibition of growth at 50 ppm (Rhizopus sp.; 50 ppm, Rhizopus sp.): 34%
- inhibition of growth at 200 ppm (Rhizopus sp.; Rhizopus): 56%
- inhibition of growth at 50 ppm (Fusarium moniliforme; 50 ppm, Fusarium moniliforme): 65%
- inhibition of growth at 200 ppm (Fusarium moniliforme; Fusarium moniliforme): 98%

SMILES: CCOc1ccc([Si]2(C(C)n3cncn3)CCCC2)cc1 (stereo not drawn) [1-(4-ethoxyphenyl)-1-[α-(1H-1,2,4-triazole-1-yl)ethyl]-1-silacyclopentane]
- inhibition of growth at 50 ppm (Botryosphaeri): 70%
- inhibition of growth at 200 ppm (Botryosphaeri): 95%
- inhibition of growth at 50 ppm (GC): 100%
- inhibition of growth at 200 ppm (GC): 100%
- inhibition of growth at 50 ppm (Botritis cinerea): 79%
- inhibition of growth at 200 ppm (Botritis cinerea): 94%
- inhibition of growth at 50 ppm (Phytophthora capsisi): 43%
- inhibition of growth at 200 ppm (Phytophthora capsisi): 91%
- inhibition of growth at 50 ppm (Pyricalaria oryzae): 100%
- inhibition of growth at 200 ppm (Pyricalaria oryzae): 100%
- inhibition of growth at 50 ppm (Rhizoctonia solani): 100%
- inhibition of growth at 200 ppm (Rhizoctonia solani): 100%
- inhibition of growth at 50 ppm (Rhizopus sp.; 50 ppm, Rhizopus sp.): 63%
- inhibition of growth at 200 ppm (Rhizopus sp.; Rhizopus): 90%
- inhibition of growth at 50 ppm (Fusarium moniliforme; 50 ppm, Fusarium moniliforme): 93%
- inhibition of growth at 200 ppm (Fusarium moniliforme; Fusarium moniliforme): 100%

SMILES: Fc1ccc([Si]2(Cn3cncn3)CCCCC2)cc1 [1-(4-fluorophenyl)-1-(1H-1,2,4-triazole-1-yl)methyl-1-silacyclohexane]
- inhibition of growth at 50 ppm (Botryosphaeri): 100%
- inhibition of growth at 200 ppm (Botryosphaeri): 100%
- inhibition of growth at 50 ppm (GC): 100%
- inhibition of growth at 200 ppm (GC): 100%
- inhibition of growth at 50 ppm (Botritis cinerea): 100%
- inhibition of growth at 200 ppm (Botritis cinerea): 100%
- inhibition of growth at 50 ppm (Phytophthora capsisi): 47%
- inhibition of growth at 200 ppm (Phytophthora capsisi): 74%
- inhibition of growth at 50 ppm (Pyricalaria oryzae): 96%
- inhibition of growth at 200 ppm (Pyricalaria oryzae): 100%
- inhibition of growth at 50 ppm (Rhizoctonia solani): 55%
- inhibition of growth at 200 ppm (Rhizoctonia solani): 59%
- inhibition of growth at 50 ppm (Rhizopus sp.; 50 ppm, Rhizopus sp.): 75%
- inhibition of growth at 200 ppm (Rhizopus sp.; Rhizopus): 93%
- inhibition of growth at 50 ppm (Fusarium moniliforme; 50 ppm, Fusarium moniliforme): 100%
- inhibition of growth at 200 ppm (Fusarium moniliforme; Fusarium moniliforme): 100%

SMILES: Fc1ccc([Si]2(Cn3cncn3)CCCC2)cc1 [1-(4-fluorophenyl)-1-(1H-1,2,4-triazole-1-yl)methyl-1-silacyclopentane]
- inhibition of growth at 50 ppm (Botryosphaeri): 100%
- inhibition of growth at 200 ppm (Botryosphaeri): 100%
- inhibition of growth at 50 ppm (GC): 100%
- inhibition of growth at 200 ppm (GC): 100%
- inhibition of growth at 50 ppm (Botritis cinerea): 100%
- inhibition of growth at 200 ppm (Botritis cinerea): 100%
- inhibition of growth at 50 ppm (Phytophthora capsisi): 80%
- inhibition of growth at 200 ppm (Phytophthora capsisi): 100%
- inhibition of growth at 50 ppm (Pyricalaria oryzae): 100%
- inhibition of growth at 200 ppm (Pyricalaria oryzae): 100%
- inhibition of growth at 50 ppm (Rhizoctonia solani): 95%
- inhibition of growth at 200 ppm (Rhizoctonia solani): 100%
- inhibition of growth at 50 ppm (Rhizopus sp.; Rhizopus): 75%
- inhibition of growth at 200 ppm (Rhizopus sp.; Rhizopus): 83%
- inhibition of growth at 50 ppm (Fusarium moniliforme): 10%
- inhibition of growth at 200 ppm (Fusarium moniliforme; Fusarium moniliforme): 100%
